In patent US11771086B2, “Pest control composition including novel iminopyridine derivative” (priority 2012, dated 2023):

Columns and labels:
[1] = tested on: Frankliniella occidentalis; test: whole plant or invertebrate
Protocol: After an air drying process, first instar larvae were released thereto. Thereafter, the larvae were left to stand in a thermostatic chamber (16 hours of light period-8 hours of dark period) at 25° C. […] The test was performed in duplicate. Mortality of larvae (%)={number of dead larvae/(number of survived larvae+number of dead larvae)}×100
(A: 100−(mortality of larvae or adults when treated only with Compound P212)
B: 100−(mortality of larvae or adults when treated with only the insecticide imidacloprid, dinotefuran, or acetamiprid))
(§1) Method for Judging Synergistic Effects
When the mortality against Frankliniella occidentalis in the case of a mixture with another agent exceeded the theoretical value given by Colby's equation, a synergistic effect was judged to be present.

[2] = tested on: Nilaparvata lugens resistant population I; test: Reference Test Example 19 Pest control test of Nilaparvata lugens, resistant population I (soil drench); type: in vivo
Protocol: (§2) Three days after the treatment, ten second instar larvae of Nilaparvata lugens, which had been collected outdoors and proliferated indoors, were each released to the rice seedling. […] Test in duplicate.
(§3) Furthermore, for comparison, the test against a species of Nilaparvata lugens which is highly susceptible to imidacloprid was performed by the same method as described above, and the results thereof are shown in Table 45. […] Meanwhile, the death rates of imidacloprid at 0.05 mg/seedling were (susceptible species) 100%, (resistant population I) 38% and (resistant population II) 69%, and the insecticidal effect thereof was also low even at a high dose. From the above results, it became obvious that Compound P212 and Compound 1-20 have high insecticidal effects even against Nilaparvata lugens resistance against imidacloprid.
(§4) Further, for the origin of test pests, bugs collected outdoors from the Kumamoto prefecture (I) in 2007 and from the Fukuoka prefecture (II) in 2005 as resistant population of Nilaparvata lugens, and bugs collected from the Kagoshima prefecture and then successively reared indoors for a long time as the imidacloprid susceptible population of Nilaparvata lugens were used.

Callosobruchus chinensis = type: in vivo; details: single agent 0.2 ng/head; topical; one day
Protocol: A compound of Formula (I) and the insecticide indicated below, prepared in predetermined concentrations using acetone, were separately topically applied to the back of the same adult Callosobruchus chinensis. […] The test was performed in duplicate. Insect mortality (%)={number of dead insects/(number of survived insects+number of dead insects)}×100
(A: 100−(insect mortality for treatment with only Compound P212)
B: 100−(insect mortality for treatment with only the insecticide fipronil or imidacloprid))
as §1

[3] = tested on: Nilaparvata lugens susceptible species (highly susceptible to imidacloprid); test: Reference Test Example 19 Pest control test of Nilaparvata lugens, imidacloprid susceptible species (soil drench); type: in vivo; details: for Insecticidal effects against Nilaparvata lugens (death rate %), Susceptible population: soil drench, six days
Protocol: as §2, §3, §4

Laodelphax striatella = test: whole plant or invertebrate; details: for mortality at 0.005 mg/seedling: read-out: Mortality of single agent against Laodelphax striatella, single agent 0.005 mg/Seedling; for Theoretical value by Colby's equation: Laodelphax striatella soil irrigation, single agent 0.5 mg/Seedling (other component 0); for Mortality of single agent against Laodelphax striatella: single agent 0.5 mg/Seedling
Protocol: After the rice seedling was left to stand for 3 days, second instar larvae were released thereto. Thereafter, the larvae were left to stand in a thermostatic chamber (16 hours of light period-8 hours of dark period) at 25° C. […] The test was performed in duplicate. Mortality of larvae (%)={number of dead larvae/(number of survived larvae+number of dead larvae)}×100
B: 100−(mortality of larvae or adults when treated only with each of imidacloprid, fipronil, chlorantraniliprole, spinosad, clothianidin, dinotefuran, sulfoxaflor, pymetrozine, thiamethoxam, flupyradifurone and cycloxaprid))
as §1
When the mortality against Laodelphax striatella in the case of a mixture with another agent exceeded the theoretical value by the Colby's equation, a synergistic effect was judged to be present.

[4] = tested on: Haemaphysalis longicornis; test: whole plant or invertebrate; type: in vivo; details: Haemaphysalis longicornis, topical, 120 h, read-out: Mortality of single agent against Haemaphysalis longicornis, single agent 1.9 μg; capsule on mouse; five days; mortality and agonal rate
Protocol: A capsule with a diameter of 2 cm and a height of 2 cm was attached to the dorsal surface of a mouse. A compound of Formula (I), ivermectin, moxidectin, permethrin, amitraz, fipronil, spinetram and the mixture of the compound of Formula (I) and each insecticide were dissolved in ethanol at the concentrations given in […], and each of these was dripped onto the surface of a mouse body within a capsule. After thorough drying, eight Haemaphysalis longicornis nymphs were released and the top of the capsule was sealed with a lid. The mouse was kept in a cage at 25° C. using a 12-hour light period and a 12-hour dark period. Five days after the release, the capsule was removed and the number of surviving and dead nymphs and the number of engorged individuals were counted and the insect mortality and agonal rate was calculated by the following equation. Insect mortality and agonal rate (%)={number of dead and agonal insects/(number of survived insects+number of dead and agonal insects)}×100

[5] = tested on: Nilaparvata lugens resistant population II; test: Reference Test Example 19 Pest control test of Nilaparvata lugens, resistant population II (soil drench); type: in vivo; details: for Insecticidal effects against Nilaparvata lugens (death rate %), Resistant population II: soil drench, six days
Protocol: as §2, §3, §4

Rhizoctonia solani = test: Test Example 12 Test of control of rice sheath blight (Rhizoctonia solani); type: in vivo; details: single agent 5 ppm; foliar spray; six days after inoculation
rice blast = type: in vivo; details: single agent 0.5 ppm; foliar application; fourteen days after inoculation
Plutella xylostella = test: whole plant or invertebrate; type: in vivo; details: for Theoretical value by Colby's equation: Plutella xylostella; for Mortality of single agent against Plutella xylostella: cabbage leaf disk spray, three days
Protocol: After an air drying process, second instar larvae were released thereto. […] The test was performed in duplicate.
as §1

Naranga aenescens = type: in vivo
Protocol: After standing for 3 days, first instar larvae were released thereto. […] The test was performed in duplicate.
as §1

Chilo suppressalis = type: in vivo
Protocol: After standing for 3 days, second instar larvae were released thereto. […] The test was performed in duplicate.
as §1

Laodelphax striatellus = test: Test Example 14 Test with Laodelphax striatellus by soil irrigation treatment (mixture with paddy herbicide); type: in vivo; details: single agent 0.05 mg/seedling, five days after release
Protocol: After standing for three days, second instar larvae were released thereto. […] The test was performed in duplicate.

Spodoptera litura = test: whole plant or invertebrate; type: in vivo; details: for Theoretical value by Colby's equation: Spodoptera litura; for Mortality of single agent against Spodoptera litura: cabbage leaf disk spray, three days
Protocol: After an air drying process, third instar larvae were released thereto. […] The test was performed in duplicate.
as §1

Aphis gossypii = test: whole plant or invertebrate; type: in vivo
Protocol: The test was performed in duplicate.
as §1

[6] = Frankliniella occidentalis, foliar, 72 h, read-out: Mortality of single agent against Frankliniella occidentalis
[7] = Laodelphax striatellus, soil, 72 h, soil irrigation
[8] = single agent 5 ppm (other component 0)
[9] = single agent 10 ppm (other component 0)

O=[N+]([O-])NC1=NCCN1Cc1ccc(Cl)nc1 [imidacloprid, reference compound]
Theoretical value by Colby's equation ([1]; 20 ppm): 69% | mortality at 20 ppm [1, 6]: 69% | death rates ([2]; resistant population I, 0.05 mg/seedling, six days after the release): 38% | Insecticidal effects against Nilaparvata lugens (death rate %), Resistant population I ([2]; throughput 0.05 mg/seedling, soil drench, six days): 38% | Mortality of single agent against Callosobruchus chinensis (Callosobruchus chinensis): 40% | death rates ([3]; susceptible species, 0.05 mg/seedling, six days after the release): 100% | Insecticidal effects against Nilaparvata lugens (death rate %), Susceptible population ([3]; throughput 0.01 mg/seedling): 100% | Insecticidal effects against Nilaparvata lugens (death rate %), Susceptible population ([3]; throughput 0.05 mg/seedling): 100% | mortality at 0.005 mg/seedling (Laodelphax striatella; [7]): 0% | mortality at 0.0019 mg [4]: 7.7% | death rates ([5]; resistant population II, 0.05 mg/seedling, six days after the release): 69% | Insecticidal effects against Nilaparvata lugens (death rate %), Resistant population II ([5]; throughput 0.01 mg/seedling): 39% | Insecticidal effects against Nilaparvata lugens (death rate %), Resistant population II ([5]; throughput 0.05 mg/seedling): 69%

CO/C=C(/C(=O)OC)c1ccccc1Oc1cc(Oc2ccccc2C#N)ncn1 [Azoxystrobin]
Preventive value (Sheath blight test, lesion height) (Rhizoctonia solani): 95 | Preventive value (Rice blast test, number of lesions) (rice blast): 37

C[C@@H](NC(=O)C(C#N)C(C)(C)C)c1ccc(Cl)cc1Cl (stereo partly drawn) [Diclocymet]
Preventive value (Rice blast test, number of lesions) (rice blast): 8

C[Si](C)(C)CC(O)(Cn1cncn1)c1ccc(F)cc1 (stereo not drawn) [Simeconazole]
Preventive value (Sheath blight test, lesion height) (Rhizoctonia solani): 5

CN/C(=N/CC1CCOC1)N[N+](=O)[O-] (stereo not drawn) [Dinotefuran]
Theoretical value by Colby's equation ([1]; 5 ppm): 35% | mortality at 5 ppm [1, 6]: 35% | mortality at 0.005 mg/seedling (Laodelphax striatella; [7]): 0%

Spinosad
Theoretical value by Colby's equation (Plutella xylostella; single agent 0.01 ppm (other component 0)): 11% | Mortality of single agent against Plutella xylostella (Plutella xylostella; single agent 0.01 ppm): 11% | Theoretical value by Colby's equation (Naranga aenescens; Naranga aenescens, single agent 0.005 mg/seedling (other component 0)): 40% | Mortality of single agent against Naranga aenescens (Naranga aenescens; single agent 0.005 mg/seedling, soil irrigation, five days after release): 40% | Theoretical value by Colby's equation (Chilo suppressalis; Chilo suppressalis, single agent 0.002 mg/seedling (other component 0)): 80% | Mortality of single agent against Chilo suppressalis (Chilo suppressalis; single agent 0.002 mg/seedling, soil irrigation, six days after release): 80% | Theoretical value by Colby's equation (Laodelphax striatella): 0% | Mortality of single agent against Laodelphax striatella (Laodelphax striatella; soil irrigation): 0%

C[C@H]1O[C@H](O[C@H]2[C@H](O)[C@@H](O)[C@@H](O)[C@H](O)[C@@H]2O)[C@@H](N)C[C@@H]1NC(=N)C(=O)O [Kasugamycin]
Preventive value (Rice blast test, number of lesions) (rice blast): 0

OCC1=C[C@H](N[C@H]2C[C@H](CO)[C@@H](O[C@@H]3O[C@H](CO)[C@@H](O)[C@H](O)[C@H]3O)[C@H](O)[C@H]2O)[C@H](O)[C@@H](O)[C@@H]1O [Validamycin]
Preventive value (Sheath blight test, lesion height) (Rhizoctonia solani): 32

CCN(CC)C(=O)n1cnc(S(=O)(=O)c2c(C)cc(C)cc2C)n1 [Cafenstrole]
Mortality of larvae (Laodelphax striatellus) (Laodelphax striatellus): 0%

Cc1nn(C)c(Cl)c1C(=O)Nc1cccc2c1C(C)OC2(C)C (stereo not drawn) [Furametpyr]
Preventive value (Sheath blight test, lesion height) (Rhizoctonia solani): 77

Cc1ccc(NC(=O)c2snnc2C)cc1Cl [Tiadinil]
Preventive value (Rice blast test, number of lesions) (rice blast): 0 | mortality at 0.5 mg/seedling (Laodelphax striatella; Laodelphax striatellus, soil, 72 h, read-out: Mortality of single agent against Laodelphax striatella, single agent 0.5 mg/Seedling, soil irrigation): 8%

CCCCOC(=O)[C@@H](C)Oc1ccc(Oc2ccc(C#N)cc2F)cc1 [Cyhalofop-butyl]
Mortality of larvae (Laodelphax striatellus) (Laodelphax striatellus): 0%

C[C@]1(COC(=O)C2CC2)[C@@H]2C[C@H](O)[C@@]3(C)Oc4cc(-c5cccnc5)oc(=O)c4[C@H](O)[C@@H]3[C@@]2(C)CC[C@@H]1OC(=O)C1CC1 [Afidopyropen]
Theoretical value by Colby's equation (Plutella xylostella; [8]): 0% | Theoretical value by Colby's equation (Plutella xylostella; [9]): 20% | Mortality of single agent against Plutella xylostella (Plutella xylostella; single agent 5 ppm): 0% | Mortality of single agent against Plutella xylostella (Plutella xylostella; single agent 10 ppm): 20% | Theoretical value by Colby's equation (Spodoptera litura; [8]): 0% | Theoretical value by Colby's equation (Spodoptera litura; [9]): 0% | Mortality of single agent against Spodoptera litura (Spodoptera litura; single agent 5 ppm): 0% | Mortality of single agent against Spodoptera litura (Spodoptera litura; single agent 10 ppm): 0% | Theoretical value by Colby's equation (Aphis gossypii; Aphis gossypii, single agent 0.002 ppm (other component 0)): 25% | Mortality of single agent against Aphis gossypii (Aphis gossypii; single agent 0.002 ppm, cucumber leaf disk spray, three days): 25%

Cc1ccc(NC(=O)NC(C)(C)c2ccccc2)cc1 [Daimuron]
Mortality of larvae (Laodelphax striatellus) (Laodelphax striatellus): 0%

Cc1nc(C(F)(F)F)c(C(=O)Nc2c(Br)cc(OC(F)(F)F)cc2Br)s1 [Thifluzamide]
Preventive value (Sheath blight test, lesion height) (Rhizoctonia solani): 92

Cc1cccc2sc3nncn3c12 [Tricyclazole]
Preventive value (Rice blast test, number of lesions) (rice blast): 72

O=C(Nc1ccccc1)N(Cc1ccc(Cl)cc1)C1CCCC1 [Pencycuron]
Preventive value (Sheath blight test, lesion height) (Rhizoctonia solani): 69

CNC(=O)/C(=N/OC)c1ccccc1CO/N=C(C)/C(=N/OC)C(/C)=N/OC [Orysastrobin]
Preventive value (Sheath blight test, lesion height) (Rhizoctonia solani): 72 | Preventive value (Rice blast test, number of lesions) (rice blast): 20 | Theoretical value by Colby's equation (Laodelphax striatella): 4% | Mortality of single agent against Laodelphax striatella (Laodelphax striatella; soil irrigation): 4%

CC(=O)Oc1c(C)c(C)nc2c(F)cc(C(C)(C)C)cc12 [Tebufloquin]
Preventive value (Rice blast test, number of lesions) (rice blast): 48

N#Cc1ccccc1NC(=O)c1snc(Cl)c1Cl [Isotianil]
Preventive value (Rice blast test, number of lesions) (rice blast): 66 | Theoretical value by Colby's equation (Laodelphax striatella): 5% | Mortality of single agent against Laodelphax striatella (Laodelphax striatella; soil irrigation): 5%
